# In patent US7009045B2 (priority 2000, dated 2006):
# Legend:
# Assay type in all cases: cell-based
# [1] = tested on: Candida famata regulatory mutants able to overproduce riboflavin; experiment: Sensitivity to copper ions, solid Burkholder medium (Table 12); design: key: +++: strong growth; ++: weak growth; —: absence of growth; settings: L20105-3-2-4
# [2] = tested on: Candida famata regulatory mutants able to overproduce riboflavin; experiment: Sensitivity to Co^+2 ions, solid Burkholder medium (Table 16); design: key: +++: strong growth; ++: weak growth; +: very weak growth; —: absence of growth
# Protocol: (§1) The sensitivity of the regulatory mutants of the yeast C. famata which overproduce riboflavin in iron rich medium probably due to defects in genes regulating repression (repression mutants), to different ions of heavy metals was studied. For this, the analyzed strains were streaked on the YPD plates and then were replica-plated on Burkholder synthetic medium containing leucine (40 μg/ml). The C.famata mutants L20105-40-1-11, L20105-40-1-17, L20105-3-2-1, L20105-3-2-8 and L20105-3-2-12 (all contained leu2 marker) accumulated 80–100 μg riboflavin/ml. The mutants #75, 4-48, 2-5 produced much higher amounts of riboflavin (200–250 μg/ml) but were prototrophs for leucine synthesis. Strain #75 was characterized by retarded growth comparing with other mutants. The strains VKM Y-9 (wild type) and L20105 (leu2) were used as the control strains.
# [3] = tested on: Pichia guilliermondii wild type and regulatory mutants (rib81); experiment: Sensitivity after electroporation to K2Cr2O7, medium with 0.5% glycerol (Table 21); design: key: +++: strong growth; ++: weak growth; +: very weak growth; —: absence of growth; settings: #9-20 (leu2); K2Cr2O7 125 μM
# Description: (§2) The possibility for positive selection of P. guilliermondii rib81 transformants unable to overproduce riboflavin in minimal medium was studied. For this, the toxicity of K2Cr2O7 (Cr^+6) was compared for the P. guilliermondii wild-type strain ATCC 9058 and regulatory mutants P. guilliermondii rib81 9-20 and 20-2. The cells were pregrown in liquid YPD to OD 1.5–2.0 (540 nm) and electroporated according to the protocol described (Example 34). Electroporated cells were washed three times with 10×volume of 0.6 M KCl and then the volume was adjusted to 1 ml. Then the cells were plated at 0.2 ml suspension per plate which contained 0.5% glycerol, 0.6 M KCl and K2Cr2O7 (50–1000 μM).
# (§3) The visual selection of the non-overproducing riboflavin transformants is rather arbitrary and uncertain. Therefore it was decided to develop the method for positive selection of the transformants using tentative differences in sensitivity to K2Cr2O7 of wild-type P. guilliermondii and the regulatory mutants rib81 9-20 and 20-2. After 6 days of cultivation in the medium with 0.5% glycerol, it was shown that K2Cr2O7 at 150–180 μM inhibited growth of regulatory mutant 9-20 more strongly than that of the wild strain (Table 21).
# [4] = tested on: Candida famata regulatory mutants able to overproduce riboflavin; experiment: Sensitivity to K2Cr2O7, solid Burkholder medium with 0.5% glycerol (Table 14); design: key: +++: strong growth; ++: weak growth; +: very weak growth; —: absence of growth
# Protocol: as §1
# [5] = tested on: Pichia guilliermondii wild type and regulatory mutants (rib81); experiment: Sensitivity after electroporation to K2Cr2O7, medium with 0.5% glycerol (Table 21); settings: Cr^+6 250–350 μM, 0.6 M KCl
# Description: as §2, §3
# [6] = tested on: Candida famata regulatory mutants able to overproduce riboflavin; experiment: Sensitivity to K2Cr2O7, solid Burkholder medium with 0.5% glycerol (Table 14)
# Protocol: as §1
structure (smiles),measurement,setting,value
O=S(=O)([O-])[O-].[Cu+2] [CuSO4],growth,[1]; Cu^+2 0.3 mM,—
same,growth,[1]; Cu^+2 8 mM,—
[Cl-].[Cl-].[Co+2] [CoCl2],growth,"[2]; #2-5, Co^+2 3.75 μg/ml",+
same,growth,"[2]; #75, Co^+2 2.5 μg/ml",+
same,growth,"[2]; L20105-3-2-1, Co^+2 3.75 μg/ml",+
same,growth,"[2]; L20105-3-2-8, Co^+2 3.75 μg/ml",+
same,growth,"[2]; L20105-3-2-8, Co^+2 5.0 μg/ml",+
same,growth,"[2]; L20105-3-2-9, Co^+2 3.75 μg/ml",+
same,growth,"[2]; L20105-3-2-12, Co^+2 3.75 μg/ml",+
same,growth,"[2]; L20105-3-2-12, Co^+2 5.0 μg/ml",+
same,growth,"[2]; L20105-40-1-11, Co^+2 3.75 μg/ml",+
[K+].[K+].[O]=[Cr](=[O])([O-])[O][Cr](=[O])(=[O])[O-] [K2Cr2O7],growth,[3],+
same,growth,"[4]; #2-5, K2Cr2O7 65 μM",+
same,growth,"[4]; #2-5, K2Cr2O7 75 μM",+
same,growth,"[4]; L20105-3-2-4, K2Cr2O7 30 μM",+
same,growth,"[4]; L20105-3-2-4, K2Cr2O7 40 μM",+
same,growth,"[4]; L20105-3-2-8, K2Cr2O7 30 μM",+
same,growth,"[4]; L20105-3-2-8, K2Cr2O7 40 μM",+
same,growth,"[4]; L20105-3-2-12, K2Cr2O7 30 μM",+
same,growth,"[4]; L20105-3-2-12, K2Cr2O7 40 μM",+
same,growth of wild-type strain P. guilliermondii ATCC 9058,[5],only slightly depressed
same,concentration inhibiting growth of weaker overproducers,[6],50 µM
